This is an account of results in patent publication EP0019589A1, “Tripeptide derivatives and their use in a process for determining enzymes” (Pentapharm A.G., priority 1979, dated 1980).

Assay type in all cases: biochemical
For test [1], the target named is T1, Submandibularis-Kallikrein (Homo sapiens, UniProt P06870).
T1 construct: Man mischt 0,5 ml Sputum mit 2 ml TRIS-Imidazol-Puffer; from tissue; host or cells: human sputum
Put plainly: Cleavage of chromogenic substrate by submandibular (glandular) kallikrein in human sputum. The conditions noted are these: 1 ml human sputum, per min; Substratkonzentration 2 x 10^-4 molar. The gist of the method: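 Sputum mixed with TRIS-imidazole buffer (ionic strength 1.0), preincubated 5 min at 37°C and centrifuged; supernatant incubated with aqueous substrate solution (2 x 10^-3 M, stock). p-Nitroaniline release followed continuously at 405 nm for 5-10 min; activity expressed as mU per ml sputum from ΔOD/min.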

The target of test [2] is T2, Humanplasmin (Homo sapiens, UniProt P00747).
T2 construct: da bei der Aktivierung aus 1 Molekül Plasminogen 1 Molekül Plasmin entsteht
Put plainly: Cleavage of chromogenic substrate by human plasmin. To be noted: 1 CU-Einheit human plasmin, per min; Substratkonzentration 2 x 10^-4 molar.

The target in test [3] is T3, Urinkallikrein (Homo sapiens, UniProt P06870).
T3 construct: 1 ml Urin und 1 ml TRIS-Imidazol-Puffer mit pH 7,9; from tissue; host or cells: human urine
Put plainly: Cleavage of chromogenic substrate by urinary kallikrein in human urine. To be noted: 1 ml human urine (pooled morning urine of healthy persons), per min; Substratkonzentration 2 x 10^-4 molar.

Test [4] concerns the target T4, Humanthrombin (Homo sapiens, UniProt P00734).
T4 construct: Humanplasmin und hu-manem NIH-Thrombin
Put plainly: Cleavage of chromogenic substrate by human NIH thrombin. To be noted: 1 NIH-Einheit human thrombin, per min; Substratkonzentration 2 x 10^-4 molar. The gist of the method:
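Thrombin hydrolysis of chromogenic p-nitroanilide substrate read spectrophotometrically at 405 nm; fluorogenic naphthylamine, methylcoumarylamine or di(methoxycarbonyl)phenylamine substrates read continuously by fluorescence emission at 400-470 nm. Activity taken as product formed per unit time; 1 µmol product/min defined as 1 enzyme unit for a given substrate.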

Molecules are shown by their SMILES. Non-standard residues stand in square brackets, D forms with d. Residues, ends and D or L forms follow the SMILES beside them. *: point of attachment. Cha = N[C@@H](CC1CCCCC1)C(=O)O; dCha = N[C@H](CC1CCCCC1)C(=O)O; dChg = N[C@@H](C(=O)O)C1CCCCC1; pNA = O=[N+]([O-])c1ccc(N*)cc1; dNle = CCCC[C@@H](N)C(=O)O; dNva = CCC[C@@H](N)C(=O)O; dAbu = CC[C@@H](N)C(=O)O; Nva = CCC[C@H](N)C(=O)O; Abu = CC[C@H](N)C(=O)O

T2 sequence (P00747 581-810 limits assumed): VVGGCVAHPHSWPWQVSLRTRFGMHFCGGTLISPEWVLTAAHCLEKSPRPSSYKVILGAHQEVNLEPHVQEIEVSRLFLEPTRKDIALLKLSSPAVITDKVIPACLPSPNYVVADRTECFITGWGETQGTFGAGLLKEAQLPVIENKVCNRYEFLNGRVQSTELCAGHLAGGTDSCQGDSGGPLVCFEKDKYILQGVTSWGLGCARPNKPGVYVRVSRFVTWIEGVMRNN
T2 sequence (P00747 97-580 partner limits assumed): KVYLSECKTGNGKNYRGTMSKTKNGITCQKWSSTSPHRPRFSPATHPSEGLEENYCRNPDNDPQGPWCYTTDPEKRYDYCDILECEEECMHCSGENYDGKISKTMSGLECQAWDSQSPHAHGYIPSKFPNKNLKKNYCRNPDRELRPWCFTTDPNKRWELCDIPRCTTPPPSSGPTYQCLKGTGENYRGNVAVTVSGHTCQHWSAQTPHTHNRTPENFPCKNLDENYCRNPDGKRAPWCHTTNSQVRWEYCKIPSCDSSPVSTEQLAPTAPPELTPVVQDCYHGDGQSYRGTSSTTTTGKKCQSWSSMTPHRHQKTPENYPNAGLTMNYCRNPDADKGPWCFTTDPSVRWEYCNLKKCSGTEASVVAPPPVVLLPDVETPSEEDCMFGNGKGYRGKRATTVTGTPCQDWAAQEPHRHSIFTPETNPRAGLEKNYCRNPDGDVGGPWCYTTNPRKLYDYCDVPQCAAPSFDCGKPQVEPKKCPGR
T1 sequence (P06870 25-262): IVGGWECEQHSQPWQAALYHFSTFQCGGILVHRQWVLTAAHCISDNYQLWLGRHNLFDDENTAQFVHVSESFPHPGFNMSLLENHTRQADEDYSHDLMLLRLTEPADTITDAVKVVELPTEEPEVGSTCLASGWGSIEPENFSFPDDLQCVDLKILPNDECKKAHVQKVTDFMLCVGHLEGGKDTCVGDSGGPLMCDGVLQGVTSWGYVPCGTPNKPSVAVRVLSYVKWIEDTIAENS
T3 sequence (P06870 25-262): as above

Turning to `CCC[C@H](NC(=O)[C@H](N)C1CCCCC1)C(=O)N[C@@H](CCCNC(=N)N)C(=O)Nc1ccc([N+](=O)[O-])cc1` [Beispiel 70, 2HBr.H-D-CHG-Nval-Arg-pNA] (H-[dChg]-[Nva]-Arg-pNA), the “Menge des durch 1 ml Humansputum pro Min. freigesetzten Spaltproduktes R-NH2 in Nanomol (Submandibularis-Kallikrein)” value in test [1] is 24,2 Nanomol. Also, the “Menge des durch 1 CU-Einheit Humanplasmin pro Min. freigesetzten Spaltproduktes R-NH2 in Nanomol (Humanplasmin)” value in test [2] worked out at 488 Nanomol. For the same compound, the “Menge des durch 1 ml Humanurin pro Min. freigesetzten Spaltproduktes R-NH2 in Nanomol (Urinkallikrein)” value in test [3] was 0,38 Nanomol. In test [4], the “Menge des durch 1 NIH-Einheit Thrombin pro Min. freigesetzten Spaltproduktes R-NH2 in Nanomol (Humanthrombin)” value is 67,4 Nanomol.
On to `CCC[C@@H](N)C(=O)N[C@@H](CC1CCCCC1)C(=O)N[C@@H](CCCCN)C(=O)Nc1ccc([N+](=O)[O-])cc1` [Beispiel 71, 2HBr.H-D-Nval-CHA-Lys-pNA] (H-[dNva]-[Cha]-Lys-pNA), for which the “Menge des durch 1 ml Humansputum pro Min. freigesetzten Spaltproduktes R-NH2 in Nanomol (Submandibularis-Kallikrein)” value in test [1] is listed as 18,04 Nanomol. Besides, in test [2], the “Menge des durch 1 CU-Einheit Humanplasmin pro Min. freigesetzten Spaltproduktes R-NH2 in Nanomol (Humanplasmin)” value was determined as 655 Nanomol. In test [3], the “Menge des durch 1 ml Humanurin pro Min. freigesetzten Spaltproduktes R-NH2 in Nanomol (Urinkallikrein)” value is reported as 1,87 Nanomol. For the same compound, the “Menge des durch 1 NIH-Einheit Thrombin pro Min. freigesetzten Spaltproduktes R-NH2 in Nanomol (Humanthrombin)” value in test [4] was 6,9 Nanomol.
As to `CC[C@@H](N)C(=O)N[C@@H](CC1CCCCC1)C(=O)N[C@@H](CCCCN)C(=O)Nc1ccc([N+](=O)[O-])cc1` [Beispiel 72, 2HBr.H-D-But-CHA-Lys-pNA] (H-[dAbu]-[Cha]-Lys-pNA), the “Menge des durch 1 ml Humansputum pro Min. freigesetzten Spaltproduktes R-NH2 in Nanomol (Submandibularis-Kallikrein)” value in test [1] was 21,0 Nanomol. For the same compound, in test [2], the “Menge des durch 1 CU-Einheit Humanplasmin pro Min. freigesetzten Spaltproduktes R-NH2 in Nanomol (Humanplasmin)” value was determined as 532 Nanomol. For the same compound, the “Menge des durch 1 ml Humanurin pro Min. freigesetzten Spaltproduktes R-NH2 in Nanomol (Urinkallikrein)” value in test [3] is on record as 2,22 Nanomol. In test [4], the “Menge des durch 1 NIH-Einheit Thrombin pro Min. freigesetzten Spaltproduktes R-NH2 in Nanomol (Humanthrombin)” value is 3,6 Nanomol.
`CC(C)C[C@@H](N)C(=O)N[C@@H](CC1CCCCC1)C(=O)N[C@@H](CCCCN)C(=O)Nc1ccc([N+](=O)[O-])cc1` [Beispiel 73, 2HBr.H-D-Leu-CHA-Lys-pNA] (H-[dL]-[Cha]-Lys-pNA): in test [1], the “Menge des durch 1 ml Humansputum pro Min. freigesetzten Spaltproduktes R-NH2 in Nanomol (Submandibularis-Kallikrein)” value is listed as 19,3 Nanomol. Besides, in test [2], the “Menge des durch 1 CU-Einheit Humanplasmin pro Min. freigesetzten Spaltproduktes R-NH2 in Nanomol (Humanplasmin)” value is on record as 778 Nanomol. In addition, the “Menge des durch 1 ml Humanurin pro Min. freigesetzten Spaltproduktes R-NH2 in Nanomol (Urinkallikrein)” value in test [3] is on record as 1,73 Nanomol. For the same compound, the “Menge des durch 1 NIH-Einheit Thrombin pro Min. freigesetzten Spaltproduktes R-NH2 in Nanomol (Humanthrombin)” value in test [4] is given as 3,4 Nanomol.
For the compound `CCCC[C@@H](N)C(=O)N[C@@H](CC1CCCCC1)C(=O)N[C@@H](CCCCN)C(=O)Nc1ccc([N+](=O)[O-])cc1` [Beispiel 74, 2HBr.H-D-Nleu-CHA-Lys-pNA] (H-[dNle]-[Cha]-Lys-pNA), the “Menge des durch 1 ml Humansputum pro Min. freigesetzten Spaltproduktes R-NH2 in Nanomol (Submandibularis-Kallikrein)” value in test [1] is 8,4 Nanomol. In test [2], the “Menge des durch 1 CU-Einheit Humanplasmin pro Min. freigesetzten Spaltproduktes R-NH2 in Nanomol (Humanplasmin)” value was 695 Nanomol. In addition, the “Menge des durch 1 ml Humanurin pro Min. freigesetzten Spaltproduktes R-NH2 in Nanomol (Urinkallikrein)” value in test [3] is listed as 0,77 Nanomol. The “Menge des durch 1 NIH-Einheit Thrombin pro Min. freigesetzten Spaltproduktes R-NH2 in Nanomol (Humanthrombin)” value in test [4] was 3,9 Nanomol.
Consider `CC[C@H](NC(=O)[C@H](N)C1CCCCC1)C(=O)N[C@@H](CCCNC(=N)N)C(=O)Nc1ccc([N+](=O)[O-])cc1` [Beispiel 75, 2HBr.H-D-CHG-But-Arg-pNA] (H-[dChg]-[Abu]-Arg-pNA), for which the “Menge des durch 1 ml Humansputum pro Min. freigesetzten Spaltproduktes R-NH2 in Nanomol (Submandibularis-Kallikrein)” value in test [1] is listed as 14,5 Nanomol. In addition, the “Menge des durch 1 CU-Einheit Humanplasmin pro Min. freigesetzten Spaltproduktes R-NH2 in Nanomol (Humanplasmin)” value in test [2] is listed as 439 Nanomol. Further, in test [3], the “Menge des durch 1 ml Humanurin pro Min. freigesetzten Spaltproduktes R-NH2 in Nanomol (Urinkallikrein)” value is 0,51 Nanomol. Moreover, the “Menge des durch 1 NIH-Einheit Thrombin pro Min. freigesetzten Spaltproduktes R-NH2 in Nanomol (Humanthrombin)” value in test [4] is 102,9 Nanomol.
On to `CC[C@H](NC(=O)[C@H](N)CC1CCCCC1)C(=O)N[C@@H](CCCNC(=N)N)C(=O)Nc1ccc([N+](=O)[O-])cc1` [Beispiel 76, 2HBr.H-D-CHA-But-Arg-pNA] (H-[dCha]-[Abu]-Arg-pNA), for which, in test [1], the “Menge des durch 1 ml Humansputum pro Min. freigesetzten Spaltproduktes R-NH2 in Nanomol (Submandibularis-Kallikrein)” value is listed as 18,1 Nanomol. Besides, the “Menge des durch 1 CU-Einheit Humanplasmin pro Min. freigesetzten Spaltproduktes R-NH2 in Nanomol (Humanplasmin)” value in test [2] came out at 478 Nanomol. Further, the “Menge des durch 1 ml Humanurin pro Min. freigesetzten Spaltproduktes R-NH2 in Nanomol (Urinkallikrein)” value in test [3] was 0,51 Nanomol. The “Menge des durch 1 NIH-Einheit Thrombin pro Min. freigesetzten Spaltproduktes R-NH2 in Nanomol (Humanthrombin)” value in test [4] is recorded as 108,9 Nanomol.
Regarding `CC[C@H](NC(=O)[C@H](N)CC1CCC(O)CC1)C(=O)N[C@@H](CCCNC(=N)N)C(=O)Nc1ccc([N+](=O)[O-])cc1` (stereo partly drawn) [Beispiel 77, 2HBr.H-D-CHT-But-Arg-pNA], in test [1], the “Menge des durch 1 ml Humansputum pro Min. freigesetzten Spaltproduktes R-NH2 in Nanomol (Submandibularis-Kallikrein)” value is reported as 18,2 Nanomol. Besides, the “Menge des durch 1 CU-Einheit Humanplasmin pro Min. freigesetzten Spaltproduktes R-NH2 in Nanomol (Humanplasmin)” value in test [2] is listed as 463 Nanomol. Further, in test [3], the “Menge des durch 1 ml Humanurin pro Min. freigesetzten Spaltproduktes R-NH2 in Nanomol (Urinkallikrein)” value is listed as 0,64 Nanomol. In addition, in test [4], the “Menge des durch 1 NIH-Einheit Thrombin pro Min. freigesetzten Spaltproduktes R-NH2 in Nanomol (Humanthrombin)” value is recorded as 114,2 Nanomol.
